Test results taken from US20030181401A1, “Insulin secretion promoter” (KYOWA HAKKO KOGYO CO., LTD., priority 2002, published 2003).
“And” between values parts separate entries of the source, which are not always exact repeats. Equal values may be shown once.

Tests used:
Assay type in all cases: in vivo
db/db mice = experiment: Test Example 4: serum insulin in glucose tolerance test after 7-day oral dosing of saccharides
Description: Groups of male 9-week-old db/db mice (Clea Japan, Inc.) each consisting of 6 mice were fed CE-2 (Clea Japan, Inc.) for one week, so as to accustom the animals to the environment.
After acclimation, individual aqueous 10% solutions of 3′-sialyllactose (abbreviated as “3′-SL” hereinafter), 6′-sialylactose (abbreviated as “6′-SL”) and 2′-FL were orally administered to the mice at 200 mg (saccharide)/kg body weight in the morning and at 300 mg (saccharide)/kg body weight in the evening. The both volume of saline was administered to the control group. The individual aqueous saccharide solutions and saline were both dosed daily to the mice for 7 days. During the dosing period, CE-2 was given together with drinking water ad libitum.
(§1) After 18-hour starvation from the final dosing on day 7, an aqueous 40% glucose solution was orally administered to 2 g (glucose)/kg body weight to the mice, to perform glucose tolerance test. Zero minute and 30 minutes after glucose loading, blood was taken from a tail vein. […] Blood was centrifuged (4° C., 10000 rpm, 10 minutes), to obtain serum.
Insulin in the serum recovered was assayed by enzyme immunoassay using Lebis Insulin kit (for rats-T) (Shibayagi, Co., Ltd.) in the same manner as in the Test Example 1.

[1] = test system: STZ-induced diabetic rats (Wistar); experiment: Test Example 9: blood glucose in glucose tolerance test, Type I diabetes mellitus model
Description: Male 7-week-old Wistar rats (Japan SLC, Inc.) were fed CE-2 (Clea Japan, Inc.) for one week, so as to accustom the rats to the environment.
After 18-hour starvation of the accustomed rats, […] of 50 mM citrate buffer, pH 4.5containing 15 mg of streptozotocin (WAKO Pure Chemical Industries, Inc.; abbreviated as “STZ” hereinafter) was prepared and administered to 25 mg (STZ)/kg body weight from their tail vein. Five days after the STZ administration, the rats were fasted for 18 hours. Blood was taken from puncture in the tail vein to assay blood glucose with a simple-type blood glucose assay apparatus Medisafe Reader GR-101 (Terumo, Co., Ltd.), to select 5 rats (Nos. 1, 3, 4, 5, 8) at mild state of diabetes mellitus with a blood glucose level of 200 mg/dl or less.
An aqueous 2% solution of 2′-fucosyllactose was prepared and administered to the rat No. 1 from the tail vein to 50 mg/kg body weight on a 2′-FL dose basis. 0.9% physiological saline was administered to rats Nos. 3, 4, 5 and 8. Two hours after 2′-FL dosing, an aqueous 40% glucose solution was orally administered to 1 g/kg body weight to the rats for glucose tolerance test. Zero minute and 30, 60, 120, and 240 minutes after glucose loading, blood was taken from a tail vein, to assay blood glucose with Medisafe Reader GR-101 and collect the serum.
12 days after the STZ dosing, the rats were fasted for 18 hours. An aqueous 2% solution of 2′-FL at 50 mg (2′-FL)/kg body weight was administered to rats Nos. 3, 4, 5 and 8 on a 2′-FL dose basis through their tail veins. To the rat No. 1 was administered 0.9% physiological saline. Two hours after 2′-FL dosing, an aqueous 40% glucose solution was orally administered to 1 g (glucose)/kg body weight to the rats, for glucose tolerance test. Zero minute and 30, 60, 120, and 240 minutes after glucose loading, blood was taken from a tail vein, to assay blood glucose with Medisafe Reader GR-101 and collect the serum.

[2] = test system: C57BL/KsJ-db/db Jcl mice (model animals of Type II diabetes mellitus); experiment: Test Example 1: serum insulin in glucose tolerance test after 7-day oral dosing
Description: Male 9-week-old C57BL/KsJ-db/db Jcl (abbreviated as “db/db” hereinafter) mice (Clea Japan, Inc.), which are model animals of Type II diabetes mellitus, were divided in groups each consisting of 6 mice, and fed a commercially available feed CE-2 (Clea Japan, Inc.) for one week, so as to accustom the animals to the environment.
After acclimation, an aqueous 10% solution of 2′-fucosyllactose (sometimes abbreviated as “2′-FL” hereinafter) was orally administered to the mice at 200 mg (2′-FL)/kg body weight in the morning and at 300 mg (2′-FL) /kg body weight in the evening. The same volume of Saline was administered to the control group. The aqueous 2′-FL solution and the saline were both dosed daily to the mice for 7 days.
During the dosing period, CE-2 was-given together with drinking water ad libitum.
as §1, with “from” for “from a”
Insulin in the serum recovered was assayed by enzyme immunoassay using Lebis Insulin kit (for rats-T) (Shibayagi, Co., Ltd.) as follows. The kit reacts with insulin in the sera of both rats and mice.
First, the serum recovered was diluted with the buffer attached to the kit to 5 fold. 10 μl of the diluted serum was taken and divided in the wells of the antibody-immobilized plate into which 100 μl of a biotin-bound anti-insulin antibody was added, for reaction at ambient temperature for 2 hours. After the reaction, the plate was rinsed four times with the rinse solution attached to the kit. After rinsing, 100 μl of the peroxidase-avidin bound material was divided in the wells, for reaction at ambient temperature for 30 minutes. After reaction, the plate was rinsed four times with the rinse solution. After rinsing, 100 μl of the chromogenic solution was divided in the wells, for chromogenic reaction for 30 minutes, followed by addition of 100 μl of the reaction termination solution to each well. The absorbance of the reaction solution in the wells at 450 nm was read with a plate reader.
Herein, a standard curve was prepared by using the 200 ng/ml standard insulin solution (rat) attached to the kit as a standard solution to dilute the standard solution appropriately with the buffer solution attached to the kit for the same reaction as for the serum, and plotting the relation between the concentration and the absorbance (450 nm).
Based on the prepared standard curve and the absorbance from the reaction with the serum, the insulin concentration in the serum was determined.

[3] = oral 200 + 300 mg/kg daily, 7 days, glucose 2 g/kg oral, 30 minutes, mean ± SD
[4] = oral 200 + 300 mg/kg daily, 7 days, glucose 2 g/kg oral, 120 minutes, mean ± SD

2′-fucosyllactose [2′-FL]
serum insulin concentration during glucose loading compared with the control group (in words) (db/db mice; continuous daily oral dosing): increased | Serum insulin concentration after glucose loading, 30 minutes (db/db mice; [3]): 8.3 ± 3.9 ng/mL | Serum insulin concentration after glucose loading, 120 minutes (db/db mice; [4]): 26.1 ± 12.9 ng/mL | Serum insulin concentration after glucose loading, Zero minute (db/db mice; oral 200 + 300 mg/kg daily, 7 days, glucose 2 g/kg oral, zero minute, mean ± SD): 6.7 ± 3.3 ng/mL | increase of blood glucose level (in words) ([1]; STZ-induced diabetic rats, glucose loading 2 hours after intravenous dosing): suppressed | Blood glucose level after glucose loading, 0 minute ([1]; individual STZ rats Nos. 1, 3, 4, 5, 8, 50 mg/kg intravenous two hours before glucose 1 g/kg oral, 0 minute, 50 mg/kg): 135 mg/dL and 186 mg/dL and 97 mg/dL and 134 mg/dL and 138 mg/dL | Blood glucose level after glucose loading, 30 minutes ([1]; individual STZ rats Nos. 1, 3, 4, 5, 8, 50 mg/kg intravenous two hours before glucose 1 g/kg oral, 30 minutes, 50 mg/kg): 167 mg/dL and 273 mg/dL and 237 mg/dL and 162 mg/dL and 152 mg/dL | Blood glucose level after glucose loading, 60 minutes ([1]; individual STZ rats Nos. 1, 3, 4, 5, 8, 50 mg/kg intravenous two hours before glucose 1 g/kg oral, 60 minutes, 50 mg/kg): 172 mg/dL and 355 mg/dL and 253 mg/dL and 154 mg/dL and 158 mg/dL | Blood glucose level after glucose loading, 120 minutes ([1]; individual STZ rats Nos. 1, 3, 4, 5, 8, 50 mg/kg intravenous two hours before glucose 1 g/kg oral, 120 minutes, 50 mg/kg): 181 mg/dL and 342 mg/dL and 224 mg/dL and 161 mg/dL and 136 mg/dL | Blood glucose level after glucose loading, 240 minutes ([1]; individual STZ rats Nos. 1, 3, 4, 5, 8, 50 mg/kg intravenous two hours before glucose 1 g/kg oral, 240 minutes, 50 mg/kg): 146 mg/dl and 328 mg/dl and 139 mg/dl (2×) and 50 mg/dl | Blood glucose level after glucose loading, −120 minutes ([1]; individual STZ rats Nos. 1, 3, 4, 5, 8, 50 mg/kg intravenous two hours before glucose 1 g/kg oral, −120 minutes, 50 mg/kg): 108 mg/dL and 197 mg/dL and 122 mg/dL and 121 mg/dL and 117 mg/dL | insulin concentration after glucose loading compared with the control group (in words) ([2]; continuous daily oral dosing): increased | Serum insulin concentration after glucose loading, Zero minute ([2]; oral 200 mg/kg morning + 300 mg/kg evening, 7 days, 18-hour starvation, glucose 2 g/kg oral, zero minute, mean ± SD): 6.7 ± 3.3 ng/mL | Serum insulin concentration after glucose loading, 30 minutes [2, 3]: 8.3 ± 3.9 ng/mL | Serum insulin concentration after glucose loading, 120 minutes [2, 4]: 26.1 ± 12.8 ng/mL
